Measurements published in patent US12115393B2, “Methods for setting parameters of a neurostimulation device and associated devices” (INSTITUT NATIONAL DE LA SANTE ET DE LA RECHERCHE MEDICALE …, priority 2019, dated 2024).

Key:
Assay type in all cases: in vivo
[1] = tested on: unpredictable chronic mild stress (UCMS) mouse model; assay: nest-building test in UCMS mice; details: 15 mg/kg fluoxetine chronically through drinking water from day 7, tested day 38, score max. 5
Description: (§1) From day 7 on, mice from the Veh (vehicle) and the Flx (fluoxetine) groups were chronically treated through drinking water respectively with water alone (n=12) or 15 mg/kg fluoxetine (n=12).
(§2) The main cohort of fifty-three mice followed the UCMS regimen from day 0 to day 35, as described previously. Briefly, mice were isolated in 24×11×12 cm cages without environmental enrichment and submitted to daily random socio-environmental stressors including: exposition to another mouse bedding, removal of sawdust, contention and light dark cycle perturbations.
(§3) Pharmacological treatments (15 mg/kg fluoxetine) were given from day 7 on to achieve chronic administration at week 5. The chronic ultrasound neurostimulation treatment was given during the fifth week of the UCMS (stressors: 08:00-12:00 AM, treatment: 02:00 PM). […]
(§4) Behaviors were assessed during the dark phase of the light-dark cycle, i.e., the active, awoken phase for the animals. The effects of ultrasound neurostimulation were assessed against those of the fluoxetine treatment from day 38 to day 43 with 1) the nest-building test, 2) the reward-maze test and 3) the open field task.
1. […] After 5 hours in standard condition, the state of the nest, built in cotton, was scored on a predefined scale. […]

[2] = tested on: unpredictable chronic mild stress (UCMS) mouse model; assay: open-field task in UCMS mice; details: 15 mg/kg fluoxetine in drinking water from day 7, tested day 43, p<0.10
Description: as §1, §2
Pharmacological treatments (15 mg/kg fluoxetine) were given from day 7 on to achieve chronic administration at week 5. […]
as §4
3. […] The latency to reach the center area (d=10 cm) and the number of center-crossings were measured for up to 5 min. The movements of the mice were recorded and tracked with the software EthoVision XT (Noldus Information Technology, Netherlands) to generate individual heat maps, color-coded for position frequencies over the duration of the test.

[3] = tested on: unpredictable chronic mild stress (UCMS) mouse model; assay: reward-maze test in UCMS mice
Description: as §1, §2, §3, §4
2. […] The latency to reach the reward and its consumption were measured for up to 5 min.

## CNCCC(Oc1ccc(C(F)(F)F)cc1)c1ccccc1 (stereo not shown) [fluoxetine]
[1]
  nest-building score (ability to build a nest within 5 hours): no effect
[2]
  number of center-crossings: did not significantly affect
[3]; 15 mg/kg fluoxetine in drinking water from day 7, tested day 40, Veh vs Flx p=0.033
  consumption of the reward: modified
[3]; 15 mg/kg fluoxetine in drinking water from day 7, tested day 40, Veh vs Flx p=0.042
  latency to travel across the apparatus and reach the food reward: decreased three-fold
